By melting point is commonly meant the temperature, or range, at which the solid turns liquid.

In one series the test system is atrium. Nature of the series: Effects on the atrial effective refractory period (S1-S2 extrastimulus technique during bilateral vagal nerve stimulation) in anesthetized beagles. The format is in vivo. The following applies: intravenous, from 5 minutes after administration, basic cycle length 300 msec. How it is done: Effects on the Effective Refractory Period
Beagles were anesthetized with pentobarbital sodium and thoracotomy was done along the median line under a respirator and the incision was made on the pericardium to expose the heart. An electrocardiogram (ECG) was recorded using bipolar electrodes attached to the surface of the right atrial free wall, right atrial auricle, and right ventricular free wall. The vagal nerves were stimulated using an electrostimulation device with Nichrome wires inserted into the vagal nerves in the neck bilaterally. The conditions for electrostimulation to the vagal nerves were set such that the RR intervals on ECG were prolonged by about 100 msec compared with those before the stimulation was started.
Atrial and ventricular effective refractory periods were determined by S1-S2 extrastimulus technique at basic cycle length of 300 msec during bilateral vagal nerve stimulation, using programmable electric stimulator. A train of 10 basic stimuli (S1) was followed by a premature extrastimulus (S2) at 2 times diastolic threshold.
For evaluation of drug effects, the atrial and ventricular effective refractory periods were determined before drug administration, then respective compound was administrated intravenously at the dose of 0.3 mg/kg or 0.6 mg/kg, and the atrial and ventricular effective refractory periods were determined from 5 minutes after the administration.
The results were shown as the prolongation time on the atrial and ventricular effective refractory periods, i.e. [effective refractory period after drug administration]−[effective refractory period before drug administration] (msec).

In the case of `CC1(C)Oc2cc3nccnc3cc2[C@H](NCCc2ccccc2F)[C@H]1O.Cl` (relative stereo) [Synthesis Example 60, (3R*,4S*)-4-{[2-(2-fluorophenyl)ethyl]amino}-2,2-dimethyl-3,4-dihydro-2H-pyrano[2,3-g]quinoxalin-3-ol hydrochloride], the “Atrial Refractory Period (prolongation time on the atrial effective refractory period)” value (“Atrial Refractory Period” below) with atrium (0.3 mg/kg) came out at 22 ms.

Regarding `Cc1cc(Cl)nc2cc3c(cc12)OC(C)(C)[C@H](O)[C@H]3NCC(O)c1ccccc1` (relative stereo) [Synthesis Example 27, (3R*,4S*)-7-chloro-4-[(2-hydroxy-2-phenylethyl)amino]-2,2,9-trimethyl-3,4-dihydro-2H-pyrano[2,3-g]quinolin-3-ol], in the series on atrium (0.3 mg/kg), the “Atrial Refractory Period” value came out at 32 ms.

`Cc1cc(Cl)nc2cc3c(cc12)OC(C)(C)[C@H](O)[C@H]3NCCc1ccc(Cl)cc1` (relative stereo) [Synthesis Example 25, (3R*,4S*)-7-chloro-4-{[2-(4-chlorophenyl)ethyl]amino}-2,2,9-trimethyl-3,4-dihydro-2H-pyrano[2,3-g]quinolin-3-ol]: the “Atrial Refractory Period” value in the series with atrium (0.3 mg/kg) came to 27 ms.

On to `Cc1cnc2cc3c(cc2c1C)OC(C)(C)C(O)C3NCCc1ccccc1.O=C(O)/C=C\C(=O)O` (racemic) [Synthesis Example 3, (±)-trans-2,2,8,9-Tetramethyl-4-[(2-phenylethyl)amino]-3,4-dihydro-2H-pyrano[2,3-g]quinolin-3-ol 1 maleate], for which the melting point fell in the range of 199 to 203 °C.

Take `CCCC(O)CN[C@H]1c2cc3nc(Cl)cc(C)c3cc2OC(C)(C)[C@@H]1O` (relative stereo) [Synthesis Example 58, (3R*,4S*)-7-chloro-4-[(2-hydroxypentyl)amino]-2,2,9-trimethyl-3,4-dihydro-2H-pyrano[2,3-g]quinolin-3-ol]: the “Atrial Refractory Period” value with atrium (0.3 mg/kg) stood at 28 ms.

In the case of `CC1(C)Oc2ccc3ncccc3c2C(NCCc2ccccc2)C1O` (stereo not drawn) [Synthesis Example 17, (1R*,2R*)-3,3-dimethyl-1-[(2-phenylethyl)amino]-2,3-dihydro-1H-pyrano[3,2-f]quinolin-2-ol], the melting point lay within 170 to 171 °C.

Regarding `Cc1ccc2cc3c(cc2n1)[C@H](NCCc1ccccc1)[C@@H](O)C(C)(C)O3.O=C(O)/C=C\C(=O)O` (relative stereo) [Synthesis Example 13, (3R*,4S*)-2,2,7-trimethyl-4-[(2-phenylethyl)amino]-3,4-dihydro-2H-pyrano[2,3-g]quinolin-3-ol 1 maleate], the melting point was 214 to 217 °C (dec.).

Take `Cc1cc(CN)nc2cc3c(cc12)OC(C)(C)[C@H](O)[C@H]3NCCc1ccccc1.O=C(O)/C=C\C(=O)O` (relative stereo) [Synthesis Example 83, (3R*,4S*)-7-aminomethyl-2,2,9-trimethyl-4-[(2-phenylethyl)amino]-3,4-dihydro-2H-pyrano[2,3-g]quinolin-3-ol 2 maleate]: the melting point lay in the range of 136 to 140 °C.

Consider `Cc1cc(Cl)nc2cc3c(cc12)OC(C)(C)[C@H](O)[C@H]3NCCc1ccc(N)cc1` (relative stereo) [Synthesis Example 26, (3R*,4S*)-4-{([2-(4-aminophenyl)ethyl]amino}-7-chloro-2,2,9-trimethyl-3,4-dihydro-2H-pyrano[2,3-g]quinolin-3-ol], for which the “Atrial Refractory Period” value in the series on atrium (0.3 mg/kg) came to 24 ms.

Consider `Cc1cc(Cl)nc2cc3c(cc12)OC(C)(C)[C@H](O)[C@H]3NCCc1ccc(F)cc1` (relative stereo) [Synthesis Example 23, (3R*,4S*)-7-chloro-4-{[2-(4-fluorophenyl)ethyl]amino}-2,2,9-trimethyl-3,4-dihydro-2H-pyrano[2,3-g]quinolin-3-ol], for which the “Atrial Refractory Period” value in the series with atrium (0.3 mg/kg) was found to be 22 ms.

For the molecule `Cc1ccc2cc3c(cc2n1)C(NCCc1ccccc1)C(O)C(C)(C)O3.O=C(O)/C=C\C(=O)O` (racemic) [Synthesis Example 4, (±)-trans-2,2,7-Trimethyl-4-[(2-phenylethyl)amino]-3,4-dihydro-2H-pyrano[2,3-g]quinolin-3-ol 3/2 maleate], the “Atrial Refractory Period” value with atrium (0.6 mg/kg) turned out to be 30 ms.

Take `Cc1cc(Cl)nc2cc3c(cc12)OC(C)(C)[C@H](O)[C@H]3NCCc1cccnc1` (relative stereo) [Synthesis Example 41, (3R*,4S*)-7-chloro-2,2,9-trimethyl-4-{[2-(3-pyridyl)ethyl]amino}-3,4-dihydro-2H-pyrano[2,3-g]quinolin-3-ol]: the “Atrial Refractory Period” value in the series with atrium (0.3 mg/kg) came to 31 ms.

With `CC1(C)Oc2cc3c(cc2[C@H](NCCc2ccccc2)[C@H]1O)OCC(=O)N3` (relative stereo) [Synthesis Example 71, (7R*,8S*)-7-hydroxy-6,6-dimethyl-8-(2-phenylethyl)amino]-4,6,7,8-tetrahydro-1,5-dioxa-4-aza-anthracene-3-one], the “Atrial Refractory Period” value with atrium (0.3 mg/kg) was found to be 31 ms.

Consider `Cc1cc(CO)nc2cc3c(cc12)OC(C)(C)[C@H](O)[C@H]3NCCc1ccccc1.O=C(O)/C=C\C(=O)O` (relative stereo) [Synthesis Example 18, (3R*,4S*)-7-hydroxymethyl-2,2,9-trimethyl-4-[(2-phenylethyl)amino]-3,4-dihydro-2H-pyrano[2,3-g]quinolin-3-ol 1 maleate], for which the “Atrial Refractory Period” value with atrium (0.3 mg/kg) was found to be 27 ms.

Consider `Cc1cc(Cl)nc2cc3c(cc12)OC(C)(C)[C@H](O)[C@H]3NCCC1CCCC1` (relative stereo) [Synthesis Example 47, (3R*,4S*)-7-chloro-4-[2-(cyclopentylethyl)amino]-2,2,9-trimethyl-3,4-dihydro-2H-pyrano[2,3-g]quinolin-3-ol], for which the “Atrial Refractory Period” value with atrium (0.3 mg/kg) came out at 24 ms.

As for `Cc1cc(Cl)nc2cc3c(cc12)OC(C)(C)[C@H](O)[C@H]3NCCc1ccccc1.O=C(O)/C=C\C(=O)O` (relative stereo) [Synthesis Example 19, (3R*,4S*)-7-chloro-2,2,9-trimethyl-4-[(2-phenylethyl)amino]-3,4-dihydro-2H-pyrano[2,3-g]quinolin-3-ol 1 maleate], the “Atrial Refractory Period” value in the series on atrium (0.3 mg/kg) stood at 26 ms.

As to `CC1(C)Oc2cc3nccnc3cc2[C@H](NCCc2ccc(F)cc2)[C@H]1O.Cl` (relative stereo) [Synthesis Example 61, (3R*,4S*)-9-{[2-(4-fluorophenyl)ethyl]amino}-7,7-dimethyl-8,9-dihydro-7H-pyrano[2,3-g]quinoxalin-8-ol hydrochloride], the “Atrial Refractory Period” value in the series with atrium (0.3 mg/kg) stood at 20 ms.

Turning to `CN1C(=O)COc2cc3c(cc21)OC(C)(C)[C@H](O)[C@H]3NCCc1ccccc1.Cl` (relative stereo) [Synthesis Example 73, (7R*,8S*)-7-hydroxy-4,6,6-trimethyl-8-(2-phanylethylamino)-4,6,7,8-tetrahydro-1,5-dioxa-4-aza-anthracene-3-one hydrochloride], the “Atrial Refractory Period” value in the series on atrium (0.3 mg/kg) stood at 31 ms.

As for `Cc1cc(Cl)nc2cc3c(cc12)OC(C)(C)[C@H](O)[C@H]3NCCC1=CCCC1` (relative stereo) [Synthesis Example 48, (3R*,4S*)-7-chloro-4-[2-(1-cyclopentenylethyl)amino]-2,2,9-trimethyl-3,4-dihydro-2H-pyrano[2,3-g]quinolin-3-ol], in the series with atrium (0.3 mg/kg), the “Atrial Refractory Period” value turned out to be 23 ms.

With `Cc1cc(Cl)nc2cc3c(cc12)OC(C)(C)[C@H](O)[C@H]3NCCc1ccccc1F` (relative stereo) [Synthesis Example 24, (3R*,4S*)-7-chloro-4-{[2-(2-fluorophenyl)ethyl]amino}-2,2,9-trimethyl-3,4-dihydro-2H-pyrano[2,3-g]quinolin-3-ol], the “Atrial Refractory Period” value in the series on atrium (0.3 mg/kg) came out at 23 ms.

For the molecule `CCCCCN[C@H]1c2cc3nc(Cl)cc(C)c3cc2OC(C)(C)[C@@H]1O.Cl` (relative stereo) [Synthesis Example 52, (3R*,4S*)-7-chloro-2,2,9-trimethyl-4-(pentylamino)-3,4-dihydro-2H-pyrano[2,3-g]quinolin-3-ol hydrochloride], the “Atrial Refractory Period” value in the series on atrium (0.3 mg/kg) came to 28 ms.

As to `CC1(C)Oc2cc3nccnc3cc2[C@H](NCCc2ccccc2)[C@H]1O.O=C(O)/C=C\C(=O)O` (relative stereo) [Synthesis Example 59, (3R*,4S*)-7,7-dimethyl-9-[(2-phenylethyl)amino]-8,9-dihydro-7H-pyrano[2,3-g]quinoxalin-8-ol 1 maleate], the “Atrial Refractory Period” value with atrium (0.3 mg/kg) worked out at 22 ms.

In the case of `CC1(C)Oc2cc3c(cc2C(NCCc2ccccc2)C1O)NC(=O)CO3` (stereo not drawn) [Synthesis Example 74, 7-Hydroxy-6,6-dimethyl-8-(2-phenylethylamino)-7,8-dihydro-1H,6H-4,5-dioxa-1-aza-anthracene-2-one], in the series on atrium (0.6 mg/kg), the “Atrial Refractory Period” value amounted to 25 ms.

For `Cc1cc(C#N)nc2cc3c(cc12)OC(C)(C)[C@H](O)[C@H]3NCCc1ccccc1.O=C(O)/C=C\C(=O)O` (relative stereo) [Synthesis Example 14, (3R*,4S*)-3-hydroxy-2,2,9-trimethyl-4-[(2-phenylethyl)amino]-3,4-dihydro-2H-pyrano[2,3-g]quinoline-7-carbonitrile 1 maleate], the “Atrial Refractory Period” value in the series on atrium (0.3 mg/kg) stood at 27 ms.

Values taken from patent US7964623B2, “Tricyclic benzopyrane compound” (Nissan Chemical Industries Ltd., priority 2004, dated 2011).
